“And” between values parts separate entries of the source, which are not always exact repeats. Equal entries are not always repeated. Each block holds one compound with its values, some of them ahead of it.
Legend:
[1] = target: T1, CaM (Rattus norvegicus, UniProt P0DP29); assay: NMR titration (15N-HSQC) of 15N-CaM with Cx43CL136-158 peptides; format: binding; conditions: result in words
T1 construct: made in house; host or cells: pAED4 vector
Protocol: (§4) All polypeptides were equilibrated in 1x phosphate-buffered saline (1x PBS) at pH 5.8 or KCl 100 mM, CaCl2 5 mM at pH 6.5 using NAP-5 columns (GE Healthcare, #17-0853-01, Chicago, MI, USA) by dialysis in Slide-A-Lyzer G2 Dialysis Cassettes, 2K MWCO (Thermo Scientific, #87717, Waltham, MA, USA).
(§5) NMR data were acquired at 7 °C or 25 °C using a 600 MHz Varian INOVA (Agilent Technologies, Santa Clara, CA, USA) or a 600 MHz Bruker Avance-III HD spectrometer (Bruker, Billerica, MA, USA) outfitted with a cryoprobe at the NMR Facility of the University of Nebraska Medical Center. […] NMR spectra were processed using NMRPipe (IBBR, Rockville, MD, USA) [46] and analyzed using NMRView (https://nmrfx.org) [47].
(§6) Data were acquired with 1024 complex points in the direct dimension and 128 complex points in the indirect dimension. Chemical shift variations were calculated according to the formula Δσ = √((ΔδHN)^2 + (ΔδN/5)^2) and plotted as a function of ligand concentration. Dissociation constants (KD) were calculated by nonlinear fitting of the titration curves using GraphPad Prism 7.0 (GraphPad Software, La Jolla, CA, USA) and averaging at least six curves.

[2] = test system: HeLa cells; assay: Scrape loading dye transfer, stably transfected HeLa cells; format: cell-based; conditions: cell layers past scrape; 100% confluent HeLa
Excerpt: (§1) Briefly, 80% confluent parental HeLa cells were transfected with Cx43 WT or ODDD mutations containing pD2529 (puromycin resistant) plasmid using Lipofectamine 2000 (Invitrogen, # 11668019) at a 1:1 (reagent:plasmid) ratio in OptiMem (Life Technologies, #31985070, Carlsbad, CA, USA) under antibiotic free conditions. After re-plating and once colonies were formed, Western blot and immunofluorescence were used to screen the clones (α-Cx43, Sigma #6219, 1:10,000, MilliporeSigma, St. Louis, MO, USA).
Cell communication was evaluated as previously described. Briefly, stably transfected HeLa cells described above were grown to 100% confluency. Media was replaced with pre-warmed dye transfer solution (0.25% Lucifer yellow CH (Life Technologies # L453) and 0.1% Texas Red 1 × 10^4 (Life Tech # D1863) in 1× PBS at 37 °C) and cells were immediately scrape-loaded with a fine edged micro-scalpel by three longitudinal scratches. After incubating at 37 °C for 4 min, cells were rinsed with 1× PBS and further incubated in antibiotic free media for 6 min. Dye spread was then stopped by washing the cells with 1× PBS containing 1 mM CaCl2 and 1 mM MgCl2. Cells were finally fixed, DAPI stained, mounted, and imaged.

[3] = test system: HeLa cells; assay: In situ Triton X-100 extraction and immunofluorescence, stably transfected HeLa cells; format: cell-based; conditions: 1% Triton X-100 in situ extraction
Excerpt: as §1
After reaching 100% confluency, cells seeded on glass coverslips were fixed in 4% paraformaldehyde (1× PBS, pH 7.4) and then blocked in 5% goat serum (1× TBS, 0.4% Triton X-100). Coverslips were then incubated with the appropriate primary antibody (α-Cx43, Sigma #6219, 1:200) diluted in blocking buffer overnight at 4 °C. Fluorescent secondary antibody (α-Rb Alexa Fluor 488, Cell Signaling #4412, 1:300) was then applied, followed by DAPI (100 ng/mL in 1× TBS). Coverslips were mounted on a drop of SlowFade anti-fade (Life Technologies, Carlsbad, CA, USA # S36972), sealed with clear nail polish, and imaged.
The in situ detergent extraction was previously described. […]

[4] = Circular dichroism (far UV), secondary structure; format: physicochemical; conditions: for CD structure with TFE: 1× PBS pH 5.8, up to 25% TFE, result in words
Protocol: CD experiments were performed on a JASCO J-815 CD spectrometer at 7 °C in the far UV (260–190 nm) with a 0.1 mm path length quartz cell, using a bandwidth of 1 nm, an integration time of 1 s, and a scan rate of 50 nm/min. Each spectrum is the average of 5 scans. All spectra were corrected by subtracting the solvent spectrum acquired under identical conditions. The protein concentration for each sample was 200–500 μM in 1× PBS at pH 5.8. For CD data collection in presence of TFE, 10× PBS was used to keep the final sample at a constant buffer concentration corresponding to 1x PBS. All CD data were processed using the Spectra Analysis software of Jasco Manager Version 2 (Jasco, Easton, PA, USA).

[5] = test system: Cx43CT236-382; assay: NMR titration (15N-HSQC) of 15N-Cx43CT236-382 with CaM; format: binding, rat; conditions: Ca^+2 not present, 10 mM EGTA
Protocol: as §4, §5, §6

[6] = test system: Src; assay: In vitro kinase assay, Src phosphorylation of GST-Cx43CT236-382; format: biochemical; conditions: CaM ~90% saturation of Cx43CT; 4 h RT; Western blot Cx43 pY265; three independent experiments
Protocol: (§2) After incubation of 4 h at RT for Src, 6 h at 30 °C for ERK1, and 6 h at RT for ERK2, phosphorylation levels of the Cx43CT were detected by Western blot using Cx43 specific anti-phospho antibodies. Three independent experiments were performed and phosphorylation levels were quantified using the iBright Analysis Software and statistical analysis were performed in GraphPad Prism 8.0 using a Student’s t-test. p-values < 0.05 were considered statistically significant.

[7] = test system: ERK2; assay: In vitro kinase assay, ERK2 phosphorylation of GST-Cx43CT236-382; format: biochemical; conditions: CaM ~90% saturation of Cx43CT; 6 h RT; Western blot pS279/S282; three independent experiments
Protocol: as §2

[8] = test system: ERK1; assay: In vitro kinase assay, ERK1 phosphorylation of GST-Cx43CT236-382; format: biochemical; conditions: CaM ~90% saturation of Cx43CT; 6 h 30 °C; Western blot pS279/S282; three independent experiments; Student's t-test
Protocol: as §2

[9] = test system: Cx43; assay: Ionomycin treatment and Triton X-100 solubility assay, HeLa^Cx43 cells, Western blot; format: cell-based; conditions: 100 nM PMA, 1 μM ionomycin, 30 min; insoluble fraction
Excerpt: as §1
After reaching 100% confluency, HeLa^Cx43 cells seeded on 10-cm dishes were incubated in presence of 1 μM ionomycin (Sigma #I0634) for 2 min for equilibration and then either treated with 1 μM ionomycin only as control, or 1 μM ionomycin plus 20 mM Ca^2+, 100 nM PMA (Sigma, # P1585), or 20 mM Ca^2+/100 nM PMA and incubated for 30 min.
The Triton X-100 solubility assay was modified from a method described previously. […] Protein lysate content was quantified by the BCA assay and normalized. […] After analysis of the insoluble fraction by Western blot, quantification from three independent replicates was measured using the iBright Analysis Software (version 3.1.3, Thermo Scientific) and statistical analysis was performed in GraphPad Prism 8.0 (San Diego, CA, USA) using the Ordinary one way Anova calculation. p-values < 0.05 were considered statistically significant.

[10] = pH 5.8; ref [14]; cited from earlier work
Excerpt: (§3) The CT plays a role in the trafficking, localization, and turnover of gap junction channels via numerous post-translational modifications and protein–protein interactions. The CT is also important for regulating junctional conductance and voltage sensitivity. […] Conversely, only a few protein partners have been identified to directly bind the CL. For example, in the ...

[11] = test system: Cx43 gap junction channels; conditions: peptide in patch pipette; ref [15]; cited from earlier work
Excerpt: as §3

[12] = test system: Cx43CT domain; conditions: ref [14]; cited from earlier work
Excerpt: as §3

KD compared with control (WT) [1]: little-to-no difference in KD
Compound: CC[C@H](C)[C@H](NC(=O)CNC(=O)[C@H](Cc1ccc(O)cc1)NC(=O)[C@@H](N)CCCCN)C(=O)N[C@@H](CCC(=O)O)C(=O)N[C@@H](CCC(=O)O)C(=O)N[C@@H](Cc1c[nH]cn1)C(=O)NCC(=O)N[C@@H](CCCCN)C(=O)N[C@H](C(=O)N[C@@H](CCCCN)C(=O)N[C@H](C(=O)N[C@@H](CCCNC(=N)N)C(=O)NCC(=O)NCC(=O)N[C@@H](CC(C)C)C(=O)N[C@@H](CC(C)C)C(=O)N[C@@H](CCCNC(=N)N)C(=O)N[C@H](C(=O)N[C@@H](Cc1ccc(O)cc1)C(=O)N[C@H](C(=O)N[C@H](C(=O)N[C@@H](CO)C(=O)O)[C@@H](C)CC)[C@@H](C)CC)[C@@H](C)O)[C@@H](C)O)C(C)C [M147T]

Compound: Cx43 WT: Cx43 wild type stably expressed in HeLa cells
Lucifer Yellow dye transfer [2]: greater than a fifth-order dye transfer
Triton X-100 solubility / localization [3]: only a small amount of Cx43 washed away in the presence of Triton X-100

Compound: Cx43CL100-155: recombinant rat full-length Cx43CL domain, residues M100-Y155 (MRKEEKLNKKEEELKVAQTDGVNVEMHLKQIEIKKFKYGIEEHGKVKMRGGLLRTY; cytoplasmic loop; UniProt P08050 100-155, looked up, fragment)
CD structure with TFE [4]: able to form α-helical structure
α-helical content ([4]; 1× PBS, pH 5.8, 7 °C, 200–500 μM, estimated by comparing previous data): less than 5%

Compound: Cx43CL100-158: recombinant rat Cx43CL construct, residues M100-S158 (MRKEEKLNKKEEELKVAQTDGVNVEMHLKQIEIKKFKYGIEEHGKVKMRGGLLRTYIIS; cytoplasmic loop; UniProt P08050 100-158, looked up, fragment)
CD structure with TFE [4]: did not elicit the same degree of α-helical content as Cx43CL100-155

inhibition of Src phosphorylation of Cx43CT [6]: ~ 90% and 90%
inhibition of ERK2 phosphorylation of Cx43CT [7]: ~ 30% and 30%
effect on ERK1 phosphorylation of Cx43CT [8]: not statistically significant
Compound: calmodulin [CaM]
interaction of CaM with Cx43CT without Ca^2+ [5]: the interaction is lost when Ca^+2 is not present

Compound: CCCCCCCCCCCCCC(=O)O[C@@H]1[C@@H](C)[C@@]2(O)[C@@H](C=C(CO)C[C@]3(O)C(=O)C(C)=C[C@@H]23)[C@@H]2C(C)(C)[C@]12OC(C)=O [PMA]
Y265 phosphorylation [9]: increasing Y265 phosphorylation
level of total Cx43 at the plaque [9]: decreased the level of total Cx43 at the plaque

Compound: Cx43L2: synthetic peptide, Cx43CL residues D119-K144
CD structure with TFE [4]: clearly adopted an α-helical structure
secondary structure [10]: two short α-helices
effect on single channel behaviour [11]: interfered with the occurrence of the residual state and prolonged open time
affinity for the CT at pH 5.8 compared with pH 7.4 [12]: greater than at pH 7.4

KD compared with control (WT) [1]: little-to-no difference in KD
Compound: CC[C@H](C)[C@H](NC(=O)CNC(=O)[C@H](Cc1ccc(O)cc1)NC(=O)[C@@H](N)CCCCN)C(=O)N[C@@H](CCC(=O)O)C(=O)N[C@@H](CCC(=O)O)C(=O)N[C@@H](Cc1c[nH]cn1)C(=O)NCC(=O)N[C@@H](CCCCN)C(=O)N[C@H](C(=O)N[C@@H](CCCCN)C(=O)N[C@@H](CCSC)C(=O)N[C@@H](CCCNC(=N)N)C(=O)NCC(=O)NCC(=O)N[C@@H](CC(C)C)C(=O)N[C@@H](CC(C)C)C(=O)N[C@@H](CCCNC(=N)N)C(=O)N[C@@H](C)C(=O)N[C@@H](Cc1ccc(O)cc1)C(=O)N[C@H](C(=O)N[C@H](C(=O)N[C@@H](CO)C(=O)O)[C@@H](C)CC)[C@@H](C)CC)C(C)C [T154A]

KD compared with control (WT) [1]: little-to-no difference in KD
Compound: CC[C@H](C)[C@H](NC(=O)CNC(=O)[C@H](Cc1ccc(O)cc1)NC(=O)[C@@H](N)CCCCN)C(=O)N[C@@H](CCC(=O)O)C(=O)N[C@@H](CCC(=O)O)C(=O)N[C@@H](Cc1c[nH]cn1)C(=O)NCC(=O)N[C@@H](CCCCN)C(=O)N[C@H](C(=O)N[C@@H](CCCCN)C(=O)N[C@@H](CCSC)C(=O)N[C@@H](CCC(N)=O)C(=O)NCC(=O)NCC(=O)N[C@@H](CC(C)C)C(=O)N[C@@H](CC(C)C)C(=O)N[C@@H](CCCNC(=N)N)C(=O)N[C@H](C(=O)N[C@@H](Cc1ccc(O)cc1)C(=O)N[C@H](C(=O)N[C@H](C(=O)N[C@@H](CO)C(=O)O)[C@@H](C)CC)[C@@H](C)CC)[C@@H](C)O)C(C)C [R148Q]

Compound: Cx43L1: synthetic peptide, Cx43CL residues M100-A116 (MRKEEKLNKKEEELKVA; UniProt P08050 100-116, looked up, fragment)
CD structure with TFE [4]: at 25% of TFE, the spectrum was still typical of a predominantly random coiled protein

Reference: publication PMC7602980 (Biomolecules, 2020)
